According to EP0318620A1, “Herbicidal sulfonamides” (E.I. DU PONT DE NEMOURS AND COMPANY, priority 1987, dated 1989):

How the values were obtained:
velvetleaf [1] = assay: Test A greenhouse herbicide test, pre- and postemergence; type: in vivo, Abutilon theophrasti; details: rated after sixteen days
Description: (§1) Seeds of crabgrass (Digitaria spp.), barnyardgrass (Echinochloa crusgalli), cheatgrass (Bromus Secalinus), giant foxtail (Setaria faberii), wild oats (Avena fatua), velvetleaf (Abutilon theophrasti), morningglory (Ipomoea spp. , cocklebur (Xanthium pensylvanicum). sorghum, corn, barley, soybean, sugarbeet, cotton, rice, wheat and purple nutsedge (Cyperus rotundus) tubers were planted and treated preemergence with the test chemicals dissolved in a non-phytotoxic solvent. At the same time, these crop and weed species were treated with a soil/foliage application. At the time of treatment, the plants ranged in height from 2 to 18 cm. Treated plants and controls were maintained in a greenhouse for sixteen days, after which all species were compared to controls and visually rated for response to treatment. The ratings, summarized in Table A, are based on a numerical scale extending from 0 = no injury, to 10 = complete kill. The accompanying descriptive symbols have the following meanings: • B = burn; • C = chlorosis/necrosis; • D = defoliation; • E = emergence inhibition; • G = growth retardation; • H = formative effect; • U = unusual pigmentation; • X = axillary stimulation; • S = albinism; and • 6Y = abscised buds or flowers.

sicklepod = assay: Test B pan test in Sassafras sandy loam soil, pre- and postemergence; type: in vivo, Cassia obtusifolia; details: scale 0 to 100
Description: (§2) Three round pans (25 cm diameter by 12.5 cm deep) were filled with Sassafras sandy loam soil. One pan was planted with nutsedge (Cyperus rotundus) tubers, crabgrass (Digitaria sanguinalis), sicklepod (Cassia obtusifolia), jimsonweed (Datura stramonium), velvetleaf (Abutilon theophrasti), lambsquarters (Chenopodim album), rice (Oryza sativa) and teaweed (Sida spinosa). The second pot was planted with green foxtail (Setaria viridis), cocklebur (Xantium pensyivanicum), morningglory (lpomoea hederacea), cotton (Gossypium hirsutum), johnsongrass (Sorghum halepense), barnyardgrass (Echinochloa crusgalli), corn (Zea mays), soybean (Glycine max) and giant foxtail (Setaria faberi). The third pot was planted with wheat (Triticum aestivum), barley (Hordeum vulgare), wild buckwheat (Polgonum convolvulus L.), cheatgrass (Bromus secalinus L.), sugarbeet (Beta vulgaris), wild oats (Avena fatua), viola (Viola arvensis), blackgrass (Alopecurus myosuroides), and rape (Brassica napus). The plants were grown for approximately fourteen days, then sprayed postemergence with the chemicals dissolved in a non-phytotoxic solvent.
(§3) Three round pans (25 cm diameter by 12.5 cm deep) were filled with Sassafras sandy loam soil. One pan was planted with nutsedge tubers, crabgrass, sicklepod, jimsonweed, velvetleaf, lambsquarters, rice and teaweed. The second pot was planted with green foxtail, cocklebur, morningglory, cottom, johnsongrass, . barnyardgrass, corn, soybean and giant foxtail. The third pot was planted with wheat, barley, wild buckwheat, cheatgrass, sugarbeet, wild oat, viola, blackgrass and rape. The three pans were sprayed preemer gence with the chemicals dissolved in a non-phytotoxic solvent.
(§4) Treated plants and controls were maintained in the greenhouse for 24 days, then all rated plants were compared to controls and visually rated for plant response.
(§5) A dash (-) response means no test.

cotton = assay: as above; type: in vivo, Gossypium hirsutum; details: scale 0 to 100
Description: as §2, §3, §4, §5

jimsonweed = assay: as above; type: in vivo, Datura stramonium; details: scale 0 to 100
Description: as §2, §3, §4, §5

wheat = assay: as above; type: in vivo, Triticum aestivum; details: scale 0 to 100
Description: as §2, §3, §4, §5

johnsongrass = assay: as above; type: in vivo, Sorghum halepense; details: scale 0 to 100
Description: as §2, §3, §4, §5

soybean = assay: as above; type: in vivo, Glycine max; details: scale 0 to 100
Description: as §2, §3, §4, §5

morningglory = assay: as above; type: in vivo, lpomoea hederacea; details: scale 0 to 100
Description: as §2, §3, §4, §5

wild oats = assay: Test A greenhouse herbicide test, pre- and postemergence; type: in vivo, Avena fatua; details: PREEMERGENCE; RATE 0.01 KG/HA; rated after sixteen days
Description: as §1

barnyardgrass = assay: Test B pan test in Sassafras sandy loam soil, pre- and postemergence; type: in vivo, Echinochloa crusgalli; details: scale 0 to 100
Description: as §2, §3, §4, §5

giant foxtail = assay: as above; type: in vivo, Setaria faberi; details: scale 0 to 100
Description: as §2, §3, §4, §5

cocklebur = assay: as above; type: in vivo, Xantium pensyivanicum; details: scale 0 to 100
Description: as §2, §3, §4, §5

velvetleaf [2] = assay: as above; type: in vivo, Abutilon theophrasti; details: scale 0 to 100
Description: as §2, §3, §4, §5

SMILES: CCOC(=O)c1c(CC#N)cccc1S(=O)(=O)NC(=O)Nc1nc(OC)cc(OC)n1 [Compound 3, 2-(cyanomethyl)-6 [[(4,6-dimethoxypyrimidin-2-yl)-aminocarbonyl]aminosulfonyl]benzoic acid, ethyl ester]
- VELVETLEAF visual rating of response to treatment (velvetleaf [1]; POSTEMERGENCE, RATE 0.01 KG/HA): 10C
- VELVETLEAF visual rating of response to treatment (velvetleaf [1]; POSTEMERGENCE, RATE 0.05 KG/HA): 10C
- VELVETLEAF visual rating of response to treatment (velvetleaf [1]; PREEMERGENCE, RATE 0.01 KG/HA): 2H
- VELVETLEAF visual rating of response to treatment (velvetleaf [1]; PREEMERGENCE, RATE 0.05 KG/HA): 5H
- CASSIA response rating (sicklepod; POSTEMERGENCE, RATE 0001 G/HA): 30
- CASSIA response rating (sicklepod; POSTEMERGENCE, RATE 0004 G/HA): 50
- CASSIA response rating (sicklepod; POSTEMERGENCE, RATE 0016 G/HA): 70
- CASSIA response rating (sicklepod; POSTEMERGENCE, RATE 0062 G/HA): 90
- CASSIA response rating (sicklepod; PREEMERGENCE, RATE 0004 G/HA): 0
- CASSIA response rating (sicklepod; PREEMERGENCE, RATE 0016 G/HA): 0
- CASSIA response rating (sicklepod; PREEMERGENCE, RATE 0062 G/HA): 0
- COTTON response rating (cotton; POSTEMERGENCE, RATE 0001 G/HA): 30
- COTTON response rating (cotton; POSTEMERGENCE, RATE 0004 G/HA): 100
- COTTON response rating (cotton; POSTEMERGENCE, RATE 0016 G/HA): 100
- COTTON response rating (cotton; POSTEMERGENCE, RATE 0062 G/HA): 100
- COTTON response rating (cotton; PREEMERGENCE, RATE 0004 G/HA): 0
- COTTON response rating (cotton; PREEMERGENCE, RATE 0016 G/HA): 0
- COTTON response rating (cotton; PREEMERGENCE, RATE 0062 G/HA): 30
- JIMSONWEED response rating (jimsonweed; POSTEMERGENCE, RATE 0001 G/HA): 30
- JIMSONWEED response rating (jimsonweed; POSTEMERGENCE, RATE 0004 G/HA): 60
- JIMSONWEED response rating (jimsonweed; POSTEMERGENCE, RATE 0016 G/HA): 100
- JIMSONWEED response rating (jimsonweed; POSTEMERGENCE, RATE 0062 G/HA): 100
- JIMSONWEED response rating (jimsonweed; PREEMERGENCE, RATE 0004 G/HA): 0
- JIMSONWEED response rating (jimsonweed; PREEMERGENCE, RATE 0016 G/HA): 0
- JIMSONWEED response rating (jimsonweed; PREEMERGENCE, RATE 0062 G/HA): 30
- WHEAT response rating (wheat; POSTEMERGENCE, RATE 0001 G/HA): 30
- WHEAT response rating (wheat; POSTEMERGENCE, RATE 0004 G/HA): 50
- WHEAT response rating (wheat; POSTEMERGENCE, RATE 0016 G/HA): 70
- WHEAT response rating (wheat; POSTEMERGENCE, RATE 0062 G/HA): 100
- WHEAT response rating (wheat; PREEMERGENCE, RATE 0004 G/HA): 0
- WHEAT response rating (wheat; PREEMERGENCE, RATE 0016 G/HA): 30
- WHEAT response rating (wheat; PREEMERGENCE, RATE 0062 G/HA): 70
- JOHNSONGRASS response rating (johnsongrass; POSTEMERGENCE, RATE 0001 G/HA): 30
- JOHNSONGRASS response rating (johnsongrass; POSTEMERGENCE, RATE 0004 G/HA): 60
- JOHNSONGRASS response rating (johnsongrass; POSTEMERGENCE, RATE 0016 G/HA): 100
- JOHNSONGRASS response rating (johnsongrass; POSTEMERGENCE, RATE 0062 G/HA): 100
- JOHNSONGRASS response rating (johnsongrass; PREEMERGENCE, RATE 0004 G/HA): 0
- JOHNSONGRASS response rating (johnsongrass; PREEMERGENCE, RATE 0016 G/HA): 30
- JOHNSONGRASS response rating (johnsongrass; PREEMERGENCE, RATE 0062 G/HA): 80
- SOYBEAN response rating (soybean; POSTEMERGENCE, RATE 0001 G/HA): 90
- SOYBEAN response rating (soybean; POSTEMERGENCE, RATE 0004 G/HA): 100
- SOYBEAN response rating (soybean; POSTEMERGENCE, RATE 0016 G/HA): 100
- SOYBEAN response rating (soybean; POSTEMERGENCE, RATE 0062 G/HA): 100
- SOYBEAN response rating (soybean; PREEMERGENCE, RATE 0004 G/HA): 0
- SOYBEAN response rating (soybean; PREEMERGENCE, RATE 0016 G/HA): 20
- SOYBEAN response rating (soybean; PREEMERGENCE, RATE 0062 G/HA): 40
- MORNINGGLORY response rating (morningglory; POSTEMERGENCE, RATE 0001 G/HA): 30
- MORNINGGLORY response rating (morningglory; POSTEMERGENCE, RATE 0004 G/HA): 50
- MORNINGGLORY response rating (morningglory; POSTEMERGENCE, RATE 0016 G/HA): 70
- MORNINGGLORY response rating (morningglory; POSTEMERGENCE, RATE 0062 G/HA): 90
- MORNINGGLORY response rating (morningglory; PREEMERGENCE, RATE 0004 G/HA): 0
- MORNINGGLORY response rating (morningglory; PREEMERGENCE, RATE 0016 G/HA): 0
- MORNINGGLORY response rating (morningglory; PREEMERGENCE, RATE 0062 G/HA): 30
- WILD OATS visual rating of response to treatment (wild oats): 3G
- BARNYARD GRASS response rating (barnyardgrass; POSTEMERGENCE, RATE 0001 G/HA): 70
- BARNYARD GRASS response rating (barnyardgrass; POSTEMERGENCE, RATE 0004 G/HA): 100
- BARNYARD GRASS response rating (barnyardgrass; POSTEMERGENCE, RATE 0016 G/HA): 100
- BARNYARD GRASS response rating (barnyardgrass; POSTEMERGENCE, RATE 0062 G/HA): 100
- BARNYARD GRASS response rating (barnyardgrass; PREEMERGENCE, RATE 0004 G/HA): 30
- BARNYARD GRASS response rating (barnyardgrass; PREEMERGENCE, RATE 0016 G/HA): 50
- BARNYARD GRASS response rating (barnyardgrass; PREEMERGENCE, RATE 0062 G/HA): 80
- GIANT FOXTAIL response rating (giant foxtail; POSTEMERGENCE, RATE 0001 G/HA): 90
- GIANT FOXTAIL response rating (giant foxtail; POSTEMERGENCE, RATE 0004 G/HA): 100
- GIANT FOXTAIL response rating (giant foxtail; POSTEMERGENCE, RATE 0016 G/HA): 100
- GIANT FOXTAIL response rating (giant foxtail; POSTEMERGENCE, RATE 0062 G/HA): 100
- GIANT FOXTAIL response rating (giant foxtail; PREEMERGENCE, RATE 0004 G/HA): 30
- GIANT FOXTAIL response rating (giant foxtail; PREEMERGENCE, RATE 0016 G/HA): 60
- GIANT FOXTAIL response rating (giant foxtail; PREEMERGENCE, RATE 0062 G/HA): 100
- COCKLEBUR response rating (cocklebur; POSTEMERGENCE, RATE 0001 G/HA): 70
- COCKLEBUR response rating (cocklebur; POSTEMERGENCE, RATE 0004 G/HA): 80
- COCKLEBUR response rating (cocklebur; POSTEMERGENCE, RATE 0016 G/HA): 90
- COCKLEBUR response rating (cocklebur; POSTEMERGENCE, RATE 0062 G/HA): 100
- COCKLEBUR response rating (cocklebur; PREEMERGENCE, RATE 0004 G/HA): 30
- COCKLEBUR response rating (cocklebur; PREEMERGENCE, RATE 0016 G/HA): 60
- COCKLEBUR response rating (cocklebur; PREEMERGENCE, RATE 0062 G/HA): 90
- VELVETLEAF response rating (velvetleaf [2]; POSTEMERGENCE, RATE 0001 G/HA): 70
- VELVETLEAF response rating (velvetleaf [2]; POSTEMERGENCE, RATE 0004 G/HA): 100
- VELVETLEAF response rating (velvetleaf [2]; POSTEMERGENCE, RATE 0016 G/HA): 100
- VELVETLEAF response rating (velvetleaf [2]; POSTEMERGENCE, RATE 0062 G/HA): 100
- VELVETLEAF response rating (velvetleaf [2]; PREEMERGENCE, RATE 0004 G/HA): 0
- VELVETLEAF response rating (velvetleaf [2]; PREEMERGENCE, RATE 0016 G/HA): 30
- VELVETLEAF response rating (velvetleaf [2]; PREEMERGENCE, RATE 0062 G/HA): 50
